Measurements: patent US20250375430A1, “USE OF DIHYDROBERBERINE TO PROMOTE RECRUITMENT AND ACTIVATION OF BROWN ADIPOSE TISSUES” (NANJING NUTRABUILDING BIO-TECH CO., LTD., priority 2023, published 2025)

How the values were obtained:
[1] = system: obese db/db mice; conditions: cited from earlier work
[2] = system: brown adipocyte; conditions: by increasing transcription of PRDM16 via AMPK activation and PGC-1α recruitment; cited from earlier work
[3] = system: C57BL/6J mice; assay: Plasma TC, TG, LDL, VLDL measured with kits in high-fat diet mice; assay type: in vivo
Experimental: Six-week-old male C57BL/6J mice were housed in a temperature-and relative humidity-controlled room (22±2° C., 55±5%) with a 12 h light-dark cycle and free access to food and water. For chronic anti-obesity studies, all mice were fed the high-fat diet (HFD, 60% calories from fat, 20% calories from protein, 20% calories from carbohydrate) for 8 weeks. At 14 weeks of age, all mice were randomly divided into 3 groups of 10 animals: (1) non-supplement group (Con Food only, Group 1); (2) DHB supplement group (DHB+Food. 50 mg/kg, Group 2); (3) DHB supplement group (DHB+Food, 100 mg/kg, Group 3). After an eight-week induction, the mice in group I were intraperitoneal injection (i.p.) administrated with normal saline between 9:30 and 11:30 am, and food and water were given ad libitum. The mice in group 2 and group 3 were intraperitoneal injection (i.p.) administrated with DHB in normal saline solution daily for 6 weeks between 9:30 and 11:30 am, and food and water were given ad libitum. The total experimental time is 14 weeks, including two periods: an eight-week induction period and a subsequent six-week supplement period. Plasma total cholesterol (TC), triglyceride (TG), low-density lipoprotein (LDL), and very low-density lipoprotein (VLDL) were measured using corresponding kits according to the manufacturers' instructions.

[4] = system: C57BL/6J mice; assay: i.p. glucose tolerance test (GTT) in obese mice; assay type: in vivo; conditions: 4th week of supplementation; glucose 0.75 g/kg i.p.; 0-120 min; especially higher dose; FIG. 5
Experimental: (§1) Six-week-old male C57BL/6J mice were housed in a temperature-and relative humidity-controlled room (22±2° C., 55±5%) with a 12 h light-dark cycle and free access to food and water. For chronic anti-obesity studies, all mice were fed the high-fat diet (HFD, 60% calories from fat, 20% calories from protein, 20% calories from carbohydrate) for 8 weeks. At 14 weeks of age, all mice were randomly divided into 3 groups of 10 animals: (1) non-supplement group (Con Food only, Group 1); (2) DHB supplement group (DHB+Food. 50 mg/kg, Group 2); (3) DHB supplement group (DHB+Food, 100 mg/kg, Group 3). The mice in group 2 and group 3 were intraperitoneal injection (i.p.) administrated with DHB in normal saline solution daily for 6 weeks between 9:30 and 11:30 am, and food and water were given ad libitum.

[5] = system: C57BL/6J mice; assay: Insulin tolerance test (ITT); assay type: in vivo; conditions: FIG. 6
Experimental: as §1, with “libitum. An insulin tolerance test (ITT) was performed by using a glucose analyzer in the 6-h fasting mice in the 5th week of the supplementation. The glucose concentrations were measured by venous bleeding at 0, 15, 30, 60 and 120 min after an i.p. injection of human insulin at 1 U/kg.” for “libitum.”

[6] = system: C57BL/6J mice; assay: Body weight and fat mass by nuclear magnetic resonance body composition analyzer; assay type: in vivo
Experimental: as §1, with “libitum. The body weight and fat mass of all mice were performed by the nuclear magnetic resonance body composition analyzer by Nuclear Magnetic Resonance Body Composition Analyzer in accordance with manufacturer's instruction. The body weight and fat mass were tested weekly (9-14 weeks) and at 9th and 14th week before supplementation and feeding, respectively.” for “libitum.”

[7] = system: UCP1 and PGC-1α; assay: mRNA levels of brown fat-enriched genes in adipose tissues (inguinal WAT) by real-time PCR; assay type: in vivo, mice
Experimental: Six-week-old male C57BL/6J mice were housed in a temperature-and relative humidity-controlled room (22±2° C., 55±5%) with a 12 h light-dark cycle and free access to food and water. For chronic anti-obesity studies, all mice were fed the high-fat diet (HFD, 60% calories from fat, 20% calories from protein, 20% calories from carbohydrate) for 8 weeks.
At 14 weeks of age, all mice were randomly divided into 3 groups of 10 animals: (1) non-supplement group (Con Food only, Group 1); (2) DHB supplement group (DHB+Food. 50 mg/kg, Group 2); (3) DHB supplement group (DHB+Food, 100 mg/kg, Group 3).
The mice in group 2 and group 3 were intraperitoneal injection (i.p.) administrated with DHB in normal saline solution daily for 6 weeks between 9:30 and 11:30 am, and food and water were given ad libitum.
At the end of the study, all mice were anesthetized with chloral hydrate, all relevant tissues like inguinal and perirenal adipose were dissected, weighed, immediately frozen in liquid nitrogen, and stored at −80° C.
The mRNA levels of brown fat-enriched genes such as UCP1 and PGC-1α from adipose tissues (like inguinal WAT) were determined by real-time PCR analysis.

[8] = system: UCP1, PRDM16 and PGC-1α; assay: Expression levels of UCP1, PRDM16 and PGC-1α (FIG. 10); assay type: in vivo; conditions: relative to mice without DHB
Experimental: as §1

[9] = system: C57BL/6J mice; assay: Energy expenditure by comprehensive lab animal monitoring system (CLAMS), indirect calorimeter; assay type: in vivo
Experimental: Six-week-old male C57BL/6J mice were housed in a temperature-and relative humidity-controlled room (22±2° C., 55±5%) with a 12 h light-dark cycle and free access to food and water. For chronic anti-obesity studies, all mice were fed the high-fat diet (HFD, 60% calories from fat, 20% calories from protein, 20% calories from carbohydrate) for 8 weeks. At 14 weeks of age, all mice were randomly divided into 3 groups of 10 animals: (1) non-supplement group (Con Food only, Group 1); (2) DHB supplement group (DHB+Food. 50 mg/kg, Group 2); (3) DHB supplement group (DHB+Food, 100 mg/kg, Group 3). The mice in group 2 and group 3 were intraperitoneal injection (i.p.) administrated with DHB in normal saline solution daily for 6 weeks between 9:30 and 11:30 am, and food and water were given ad libitum. A key factor for controlling energy homoeostasis is the balance between caloric intake and energy expenditure. We analyzed the actions of DHB on energy expenditure using comprehensive lab animal monitoring system (CLAMS). Metabolic analysis was conducted between 8:30 am and 7:30 pm at the last week of experiment to identify […]. O2 consumption, CO2 production, and locomotor activity were measured using a 16-chamber indirect calorimeter. The mice were acclimated to the system for 20-24 h, and measurement of VO2 and VCO2 was performed during the next 24 h. The mice were maintained at 24° C. under a 12 h light/dark cycle. Food and water were available ad libitum. Voluntary activity was derived from the x-axis beam breaks monitored every 15 min. Heat production (energy expenditure) was calculated using the following equation: [formula] where heat is measured in kcal h^−1, VO2 is measured in litres kg^−1 h^−1 and body weight is measured in kg.

[10] = system: BAT; assay: 18F-FDG uptake in BAT by PET/CT; assay type: in vivo, mice; conditions: PET/CT 60 min after tracer; fasted overnight; FIG. 14
Experimental: as §1, with “libitum. […] [formula]” for “libitum.”

[11] = system: C57BL/6J mice; assay: Rectal temperature in the cold room; assay type: in vivo; conditions: cold room 4-8° C.; 9th and 14th week; FIG. 15
Experimental: as §1

[12] = in vitro; cited from earlier work
[13] = mice, including mice lacking intestinal bacteria needed to break down BBR; cited from earlier work
[14] = 100 mg/kg compared with 50 mg/kg
[15] = adipose tissue (inguinal WAT), real-time PCR, relative to mice without DHB, FIG. 9

COc1ccc2cc3[n+](cc2c1OC)CCc1cc2c(cc1-3)OCO2 [BBR, berberine]
energy expenditure and adaptive thermogenesis [1]: increase
thermogenic program in BAT [1]: promote the thermogenic program in BAT
weight gain [1]: reduce weight gain
brown adipocyte differentiation and BAT thermogenesis [2]: promote

COc1ccc2c(c1OC)CN1CCc3cc4c(cc3C1=C2)OCO4 [DHB, dihydroberberine]
improving biomarkers related to lipid mobilization, higher dose than lower dose [3, 14]: greater effects
TG level ([3]; plasma, HFD mice, DHB i.p. 50 or 100 mg/kg daily for 6 weeks, relative to mice without DHB, FIG. 1): lower levels
TC level ([3]; plasma, HFD mice, DHB i.p. 50 or 100 mg/kg daily for 6 weeks, relative to mice without DHB, FIG. 2): lower levels
LDL level ([3]; plasma, HFD mice, DHB i.p. 50 or 100 mg/kg daily for 6 weeks, relative to mice without DHB, FIG. 3): lower levels
VLDL level ([3]; plasma, HFD mice, DHB i.p. 50 or 100 mg/kg daily for 6 weeks, relative to mice without DHB, FIG. 4): lower levels
tolerance to a glucose load (i.p. glucose tolerance test) [4]: better tolerance to a glucose load
insulin tolerance test result, higher-dose group [5, 14]: better result
insulin tolerance test result ([5]; 5th week of supplementation, 6-h fasting, human insulin 1 U/kg i.p.): ameliorated glucose tolerance
body weight (weight gain) ([6]; group 2 and 3 (50 and 100 mg/kg), 6 weeks of treatment, week 9 to 14, FIG. 7): obviously protected from weight gain
fat mass percentage (fat accumulation) ([6]; group 3 (100 mg/kg), 9th and 14th week, FIG. 8): inhibited fat accumulation better
body fat percentage ([6]; relative to mice without DHB supplementation): decreases body fat percentage
browning of white fat, higher dose than lower dose [7, 14]: greater effects
PGC-1α mRNA level [7, 15]: higher levels
UCP1 mRNA level [7, 15]: higher levels
expression of PGC-1α [8]: increase the expression
expression of PRDM16 [8]: increase the expression
expression of UCP1 [8]: increase the expression
BAT thermogenesis and energy expenditure, higher dose than lower dose [9, 14]: greater effects
BAT thermogenesis and energy expenditure ([9]; 24 h period, FIG. 13): beneficial effects
oxygen consumption (VO2) rate ([9]; through a 12-h light/dark cycle, 24 h period, 24° C., FIG. 11): markedly higher
carbon dioxide production (VCO2) rate ([9]; through a 12-h light/dark cycle, 24 h period, 24° C., FIG. 12): markedly higher
total accumulated amount of 18F-FDG in BAT [10]: increase the accumulated amount
rectal temperature [11]: higher
intestinal absorption rate relative to BBR [12]: five times higher
absorption relative to BBR [13]: better absorbed
